Results published in patent publication US20030199671A1, “Binding molecules for Fc-region polypeptides” (priority 2001, published 2003).
Positions of bridges follow the written chain, without caps; N, C: chain ends. Residues, ends and D or L forms follow the SMILES beside them.

Columns and labels:
Format in all cases: binding
IgG4 = IgG4 (Homo sapiens, UniProt P01861); parameters: all human subtypes derived from myeloma patients; purchased Calbiochem 400126; host or cells: myeloma patients; settings: for % IgG Capture - Batch Binding, Human IgG4: Table 9, immobilized peptide, 5.0 mg/ml resin load
Chain of IgG4 (P01861 1-327 isoform P01861-1): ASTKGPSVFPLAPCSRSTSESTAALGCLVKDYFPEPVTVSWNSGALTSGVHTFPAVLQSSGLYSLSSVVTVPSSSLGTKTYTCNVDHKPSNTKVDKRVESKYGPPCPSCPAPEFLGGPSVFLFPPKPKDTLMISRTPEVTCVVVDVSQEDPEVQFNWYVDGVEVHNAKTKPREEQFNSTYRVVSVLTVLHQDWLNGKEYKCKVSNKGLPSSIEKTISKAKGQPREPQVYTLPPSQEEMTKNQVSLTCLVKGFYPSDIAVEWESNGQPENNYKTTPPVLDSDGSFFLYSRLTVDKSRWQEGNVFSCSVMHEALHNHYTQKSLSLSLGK
Summary of the method: (§1)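 Read-out is A280 of unbound IgG (1.4 mg/ml extinction coefficient), with percent bound derived against non-filtered or negative controls. Targets were incubated with immobilized peptides in PBST or TBST for 1-1.5 h at room temperature. Hydrolyzed Sepharose and immobilized Protein A serve as negative and positive controls.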

mouse IgG = settings: Table 11; unfractionated IgG
Summary of the method: (§2)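 Species specificity was assessed by static binding of unfractionated IgG to peptide resin in pH 7.2 phosphate or pH 7.5 Tris buffer with 0.01% Tween 20. Bound fraction was calculated from A280 of unbound target.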

human IgG2 = molecular target: T1, human IgG2 (Homo sapiens, UniProt P01859); settings: for % IgG Capture - Batch Binding, Human IgG2: Table 9, immobilized peptide, 5.0 mg/ml resin load
T1 construct: all human subtypes derived from myeloma patients; purchased Calbiochem 400122; host or cells: myeloma patients
T1 sequence (P01859 1-326 isoform P01859-1): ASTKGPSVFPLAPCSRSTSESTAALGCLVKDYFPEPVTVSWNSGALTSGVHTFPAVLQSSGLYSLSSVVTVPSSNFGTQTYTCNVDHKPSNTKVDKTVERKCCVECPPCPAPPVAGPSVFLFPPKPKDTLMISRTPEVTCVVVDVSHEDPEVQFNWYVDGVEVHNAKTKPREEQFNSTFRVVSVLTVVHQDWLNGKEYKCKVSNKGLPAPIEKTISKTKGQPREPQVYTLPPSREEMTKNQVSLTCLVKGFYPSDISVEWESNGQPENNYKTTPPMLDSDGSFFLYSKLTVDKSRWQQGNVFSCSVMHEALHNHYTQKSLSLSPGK
Summary of the method: as §1

human IgG = settings: Table 11; unfractionated IgG
Summary of the method: as §2

goat IgG = settings: Table 11; unfractionated IgG
Summary of the method: as §2

human IgG1 = molecular target: T2, human IgG1 (Homo sapiens, UniProt P01857); settings: for % IgG Capture - Batch Binding, Human IgG1: Table 9, immobilized peptide, 5.0 mg/ml resin load
T2 construct: all human subtypes derived from myeloma patients; purchased Calbiochem 400120; host or cells: myeloma patients
T2 sequence (P01857 1-330 isoform P01857-1): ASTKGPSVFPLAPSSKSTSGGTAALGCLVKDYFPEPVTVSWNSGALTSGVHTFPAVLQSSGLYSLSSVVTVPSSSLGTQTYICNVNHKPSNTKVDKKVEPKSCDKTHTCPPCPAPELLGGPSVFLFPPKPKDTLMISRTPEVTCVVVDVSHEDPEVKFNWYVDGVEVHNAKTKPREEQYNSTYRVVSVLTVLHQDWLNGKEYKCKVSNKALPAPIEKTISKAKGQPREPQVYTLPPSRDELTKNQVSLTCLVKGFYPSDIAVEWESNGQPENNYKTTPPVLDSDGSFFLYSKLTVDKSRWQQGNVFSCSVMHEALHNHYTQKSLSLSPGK
Summary of the method: as §1

bovine IgG = settings: Table 11; unfractionated IgG
Summary of the method: as §2

IgG3 = IgG3 (Homo sapiens, UniProt P01860); parameters: all human subtypes derived from myeloma patients; purchased Calbiochem 400124; host or cells: myeloma patients; settings: for % IgG Capture - Batch Binding, Human IgG3: Table 9, immobilized peptide, 5.0 mg/ml resin load
Chain of IgG3 (P01860 1-377 isoform P01860-1): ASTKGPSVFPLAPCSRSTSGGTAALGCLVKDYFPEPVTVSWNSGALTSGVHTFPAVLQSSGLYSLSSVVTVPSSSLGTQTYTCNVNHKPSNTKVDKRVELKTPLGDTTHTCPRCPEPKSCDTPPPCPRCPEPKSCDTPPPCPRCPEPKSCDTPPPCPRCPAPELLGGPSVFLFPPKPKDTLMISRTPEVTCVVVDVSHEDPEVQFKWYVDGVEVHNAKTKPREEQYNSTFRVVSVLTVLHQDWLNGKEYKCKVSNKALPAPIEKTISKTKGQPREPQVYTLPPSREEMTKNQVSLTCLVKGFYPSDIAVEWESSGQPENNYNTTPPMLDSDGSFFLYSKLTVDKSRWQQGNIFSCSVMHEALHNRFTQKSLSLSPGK
Summary of the method: as §1

[1] = Table 10, elution 0.1 M sodium bicarbonate buffer, pH 8.5
[2] = Table 10, elution 0.1 M sodium citrate buffer, pH 4.0

SMILES | % IgG Capture - Batch Binding, Human IgG4 (IgG4) [%] | Human IgG4 bdg % (% of Total Load) (IgG4; Table 10, batch binding) [%] | Human IgG4 elu pH 8.5 (% of Total Load) (IgG4; [1]) [%] | % IgG Capture - Batch Binding, Mouse IgG (mouse IgG) [%] | % IgG Capture - Batch Binding, Human IgG2 (human IgG2) [%] | Human IgG2 bdg % (% of Total Load) (human IgG2; Table 10, batch binding) [%] | Human IgG2 elu pH 8.5 (% of Total Load) (human IgG2; [1]) [%] | Human IgG2 elu pH 4.0 (% of Total Load) (human IgG2; [2]) [%] | % IgG Capture - Batch Binding, Human IgG (human IgG) [%] | % IgG Capture - Batch Binding, Goat IgG (goat IgG) [%] | % IgG Capture - Batch Binding, Human IgG1 (human IgG1) [%] | Human IgG1 bdg % (% of Total Load) (human IgG1; Table 10, batch binding) [%] | Human IgG1 elu pH 8.5 (% of Total Load) (human IgG1; [1]) [%] | Human IgG1 elu pH 4.0 (% of Total Load) (human IgG1; [2]) [%] | % IgG Capture - Batch Binding, Bovine IgG (bovine IgG) [%] | % IgG Capture - Batch Binding, Human IgG3 (IgG3) [%] | Human IgG3 bdg % (% of Total Load) (IgG3; Table 10, batch binding) [%] | Human IgG3 elu pH 8.5 (% of Total Load) (IgG3; [1]) [%] | Human IgG3 elu pH 4.0 (% of Total Load) (IgG3; [2]) [%]
CC(=O)NCC(=O)N[C@@H](CC(=O)O)C(=O)N[C@@H](CC(=O)O)C(=O)N[C@@H](CC(=O)O)C(=O)N[C@@H](Cc1c[nH]cn1)C(=O)N[C@H]1CSSC[C@@H](C(=O)N2CCC[C@H]2C(=O)N[C@@H](Cc2c[nH]cn2)C(=O)NCC(=O)N[C@@H](CCC(=O)O)C(=O)N2CCC[C@H]2C(=O)NCC(=O)N2CCC[C@H]2C(=O)N[C@@H](CCC(=O)O)C(=O)NCC(=O)NCC(=O)NCC(=O)N[C@@H](CCCCN)C(N)=O)NC(=O)[C@H](CCC(=O)O)NC(=O)[C@H](CO)NC(=O)[C@H](CC(N)=O)NC(=O)[C@H](Cc2ccccc2)NC(=O)[C@H](Cc2c[nH]c3ccccc23)NC(=O)[C@H](CCC(=O)O)NC(=O)[C@H](CCCNC(=N)N)NC(=O)[C@H](Cc2ccccc2)NC(=O)[C@H](Cc2c[nH]c3ccccc23)NC(=O)[C@H](Cc2ccc(O)cc2)NC1=O [DX252] (Ac-GDDDHCYWFREWFNSECPHGEPGPEGGGK-NH2; disulfide 6-17 (inferred)) | 6 | 14 | 4 | 1 | 24 | 37 | 8 | 10 | 20 | 0 | 34 | 37 | 19 | 30 | 0 | 35 | 44 | 8 | 5
CC(=O)N[C@@H](C)C(=O)NCC(=O)N1CCC[C@H]1C(=O)N[C@@H](Cc1c[nH]cn1)C(=O)N[C@@H](CC(N)=O)C(=O)N[C@H]1CSSC[C@@H](C(=O)N[C@@H](CCCCN)C(=O)N[C@@H](Cc2c[nH]c3ccccc23)C(=O)N[C@@H](Cc2ccccc2)C(=O)N2CCC[C@H]2C(=O)NCC(=O)N2CCC[C@H]2C(=O)N[C@@H](CCC(=O)O)C(=O)NCC(=O)NCC(=O)NCC(=O)N[C@@H](CCCCN)C(N)=O)NC(=O)[C@H](Cc2ccc(O)cc2)NC(=O)[C@H](Cc2c[nH]c3ccccc23)NC(=O)[C@H](Cc2ccc(O)cc2)NC(=O)[C@H](Cc2c[nH]cn2)NC(=O)[C@H](CC(=O)O)NC(=O)[C@H](CC(=O)O)NC1=O [DX389] (Ac-AGPHNCDDHYWYCKWFPGPEGGGK-NH2; disulfide 6-13 (inferred)) | 3 |  |  | 0 | 11 |  |  |  | 4 | 0 | 4 |  |  |  | 0 | 26 |  |  | 
